System: E. coli (ATCC 25922)
Assay: Biocidal activity of coated hard-substrates, ISO 22196 methodology
Format: cell-based
Conditions: 5% FBS and MH Broth
Protocol: Tables 27 to 35 summarize the biocidal activity of the coated hard-substrates as assessed using the ISO 22196 methodology. Briefly, control and chlorinated samples of the coated hard-substrates (chlorinated at 200 ppm for 10 minutes) were challenged with E. coli (ATCC 25922). Using a pipette, 200 μL of test inoculum were transferred at a concentration of 1-2×10^6 CFU/mL (in sterile DI water, 5% fetal bovine serum or 100% Mueller-Hinton broth) onto a 50 mm×50 mm plastic test surface in a sterile petri dish. The test inoculum was covered with a piece of PET (polyethylene terephthalate) film that measured 40 mm×40 mm. A slight pressure was applied to the film so that the test inoculum spread to the edges. The test inoculum was kept within the edges of the film and was capped with the lid of the petri dish. Contact times for the samples were 10, 30 and 60 minutes. Then the samples were quenched with 10 mL of sterile 0.05 M sodium thiosulfate solution to remove all oxidative chlorine in the petri dish. This quenching step was followed by repetitive washing and 1 minute of sonication. […] The plates were incubated at 37° C. for about 16 hours to about 18 hours, and viable bacterial colonies were recorded for kill kinetics analysis. The logarithm reduction was determined as follows: […]

| SMILES | biocidal activity (in words) |
| --- | --- |
| CCCC[P+](C)(CCCC[P+](CCCCCCCCCC[N+](C)(CCCN)CCCN)(c1ccccc1)c1ccccc1)c1ccccc1.[Br-].[Br-].[Br-] (centres unmarked) [C4-P—C4-P—C10-BIS-C3-NH2] | poor biocidal activity |
| CC1(C)CC([N+](C)(C)CCCC[P+](CCCC[P+](CCCC[N+](C)(CCCN)CCCN)(c2ccccc2)c2ccccc2)(c2ccccc2)c2ccccc2)CC(C)(C)N1.[Br-].[Br-].[Br-].[Br-] [PIP—C4-P—C4-P—C4-BIS-C3-NH2] | had biocidal activity |
